In patent US5189169A (priority 1991, dated 1993):
“And” between values parts separate entries of the source, which are not always exact repeats. Equal values may be shown once.

Tests used:
Details in all cases: in vivo
[1] = tested on: three grassy weeds (wild oat, watergrass, foxtail); set-up: species or system Avena fatua, Echinochloa crusgalli, Setaria viridis
[2] = tested on: three broadleaf weeds (morning glory, mustard, velvetleaf); set-up: species or system Ipomoea purpurea, Brassica kaber, Abutilon theophrasti
[3] = tested on: yellow nutsedge; set-up: species or system Cyperus esculentus
[4] = tested on: three grassy weeds (wild oat, watergrass, foxtail); set-up: species or system Avena fatua, Echinochloa crusgalli, Setaria viridis; remark: listed apart in the source
[5] = tested on: three broadleaf weeds (morning glory, mustard, velvetleaf); set-up: species or system Ipomoea purpurea, Brassica kaber, Abutilon theophrasti; remark: listed apart in the source
[6] = tested on: yellow nutsedge; set-up: species or system Cyperus esculentus; remark: listed apart in the source

SMILES	% Control, Pre-emergence, GR avg. [1]	% Control, Pre-emergence, BL avg. [2]	% Control, Pre-emergence, NS [3]	% Control, Post-emergence, GR avg. [4]	% Control, Post-emergence, BL avg. [5]	% Control, Post-emergence, NS [6]
CCCCSP(=O)(N(CCC)CCC)N(CCC)CCC [Compound 1]	2%	50%	0%	90% and 85%	90% and 100%	10% and 5%
CCCSP(=O)(N(CCC)CCC)N(C)c1ccc(Cl)cc1Cl (stereo not drawn) [Compound 38]	0%	0%	0%	40%	100%	0%
CCCSP(=O)(N(CCC)CCC)N(C)c1ccc(OC)cc1 (stereo not drawn) [Compound 36]	0%	0%	0%	10%	100%	0%
CCCSP(=O)(N(CCC)CCC)N(CCC)c1ccc(C(C)C)cc1 (stereo not drawn) [Compound 59]	0%	0%	0%	10% and 6%	50% and 55%	0%
CCCN(CCC)P(=O)(SC(C)(C)C)N(CCC)CCC [Compound 3]	0%	100%	0%	80% and 70%	80% and 100%	5% and 0%
CCCSP(=O)(N(CCC)CCC)N(CCC)c1ccc(Cl)cc1C (stereo not drawn) [Compound 61]	0%	3%	0%	50% and 38%	80% and 76%	0%
CCCSP(=O)(N(CCC)CCC)N(C)c1cc(F)c(F)cc1F (stereo not drawn) [Compound 48]	0%	0%	0%	80% and 40%	90% and 80%	0%
CCCCCN(CCCCC)P(=O)(SCCC)N(C)c1ccccc1C (stereo not drawn) [Compound 15]	0%	0%	0%	50% and 47%	80% and 60%	5% and 0%
CCCN(CCC)P(=O)(Sc1ccc(Cl)c(Cl)c1)N(CCC)CCC [Compound 9]	0%	0%	0%	50% and 47%	50% and 83%	0%
CCCSP(=O)(N(CCC)CCC)N(C)c1ccc(Cl)cc1 (stereo not drawn) [Compound 16]	0%	0%	0%	33% and 47%	43% and 73%	0%
CCCSP(=O)(N(CCC)CCC)N(CCOC)CCOC (stereo not drawn) [Compound 46]	0%	0%	0%	30% and 47%	60% and 73%	0%
CCCSP(=O)(N(CCC)CCC)N(C)c1ccc(Cl)cc1C (stereo not drawn) [Compound 62]	0%	0%	0%	30% and 33%	75% and 76%	0%
CCCSP(=O)(N(C)CC)N(CCC)CCC (stereo not drawn) [Compound 2]	33%	33%	0%	80% and 57%	100%	20% and 10%
CCCSP(=O)(N(CCC)CCC)N(C)c1cccnc1 (stereo not drawn) [Compound 40]	0%	0%	0%	10%	70%	0%
CCCSP(=O)(N(CCC)CCC)N(CCC)c1ccccc1C(C)C (stereo not drawn) [Compound 57]	0%	0%	0%	20% and 16%	70% and 60%	0%
CCCSP(=O)(N(CCC)CCC)N(C)c1ccccc1C (stereo not drawn) [Compound 14]	30%	33%	0%	60% and 73%	60% and 67%	5% and 0%
CCCCN(c1ccccc1)P(=O)(SCCC)N(CCC)CCC (stereo not drawn) [Compound 24]	0%	33%	0%	30% and 23%	80% and 73%	10% and 0%
CCCSP(=O)(N(CCC)CCC)N(C)c1ccc(Br)cc1Br (stereo not drawn) [Compound 37]	0%	0%	0%	20% and 10%	80% and 83%	0%
CCCSP(=O)(N(CCC)CCC)N(C)c1c(F)c(F)cc(F)c1F (stereo not drawn) [Compound 53]	0%	10%	0%	75% and 43%	100%	0%
CCCSP(=O)(N(CCC)CCC)N(C)c1ccc(OC)cc1 (stereo not drawn) [Compound 10]	0%	0%	9%	30% and 23%	80%	10% and 0%
CCCSP(=O)(N(CCC)CCC)N(C)c1ccc(F)c(F)c1 (stereo not drawn) [Compound 30]	0%	0%	0%	5% and 0%	80% and 97%	0%
CCCCCSP(=O)(N(CCCC)CCCC)N(CCCC)CCCC [Compound 4]	0%	0%	0%	70% and 77%	50% and 45%	0%
CCCSP(=O)(N(CCC)CCC)N(C)c1ccc(Cl)c(Cl)c1 (stereo not drawn) [Compound 20]	0%	0%	0%	20% and 13%	50% and 67%	5% and 0%
CCCSP(=O)(N(C)c1ccc(F)cc1)N(C)c1ccc(F)cc1 [Compound 45]	0%	0%	0%	50% and 75%	90% and 92%	0% and 10%
CCCSP(=O)(N(CCC)CCC)N(C)c1cccc(Cl)c1Cl (stereo not drawn) [Compound 35]	0%	0%	0%	20% and 33%	20% and 33%	0%
CCCSP(=O)(N(CCC)CCC)N(CC)c1ccccc1 (stereo not drawn) [Compound 26]	7%	33%	0%	20% and 10%	50%	0%
CCCN(CCC)P(=O)(Sc1ccc(Cl)cc1)N(CCC)CCC [Compound 6]	0%	0%	0%	70% and 53%	80% and 93%	0%
CCCN(CCC)P(=O)(Sc1ccccc1)N(CCC)CCC [Compound 63]	0%	3%	0%	60% and 43%	80% and 91%	0%
CCCSP(=O)(N(CCC)CCC)N(CCC)c1ccccc1 (stereo not drawn) [Compound 25]	0%	33%	0%	50% and 67%	50% and 67%	0%
CCCSP(=O)(N(CCC)CCC)N(C)c1cccc([N+](=O)[O-])c1 (stereo not drawn) [Compound 44]	0%	0%	0%	10%	53%	0%
